The text below walks through data of patent US12419863B2, “Pharmaceutical composition for use in treatment of hypertrophic cardiomyopathy” (CELLTRION INC., priority 2018, dated 2025).

Data set [1] is described as follows: Clinical safety and tolerability evaluation with electrocardiogram, repeated oral administration (Example 2). The data set is classed as in vivo, human. The conditions noted are these: cohorts 4 and 5: 200 mg once a day for 5 days and 300 mg once a day for 14 days, healthy subjects.
Data set [2] can be described thus: Clinical safety and tolerability evaluation with 12-electrode electrocardiogram, single oral administration (Example 1). The conditions noted are these: healthy subjects; for QRS / QTcF: oral.
Procedure: Randomized, double-blind, placebo-controlled, sequential, ascending, single dosing studies were conducted to evaluate safety, tolerability, pharmacokinetics and pharmacodynamics of cibenzoline.
In this study, a total of 24 subjects were randomly assigned 1:1:1 to three cohorts and proceeded in a total of four stages: screening, treatment period 1, withdrawal period, and treatment period 2. The ratio between the dosed group and the non-dosed group (placebo) is assigned as 6:2.
The main endpoints are safety, tolerability and side effects, and the clinical test items are corrected QT interval (calculated by Fridericia formula) [QTc(F)]), QT interval, and QRS interval, PR interval, and 12-electrode electrocardiogram including ventricular rate, vital signs (blood pressure, pulse, body temperature, respiration rate), hypersensitivity reaction (determined by electrocardiogram recording and vital signs), clinical inspection evaluation (hematology, blood chemistry, urinalysis, etc.), adverse reactions (including serious adverse reactions).
The conditions of data set [3]: patients with hypertrophic cardiomyopathy; no control group; cited from earlier work.
[4] abbreviates: Cohort 1: 200 mg once, Day 1, 1.5 h after administration.
[5] abbreviates: Cohort 1: 200 mg once, Day 1, 3 h after administration.
The mark [6] stands for this setting: Cohort 1: 200 mg once, Day 1, 8 h after administration.
Setting [7] is: Cohort 1: 200 mg once, Day 1 before administration (baseline).
[8] abbreviates: Cohort 2: 300 mg once, Day 1, 1.5 h after administration.
The mark [9] stands for this setting: Cohort 2: 300 mg once, Day 1, 3 h after administration.
The mark [10] stands for this setting: Cohort 2: 300 mg once, Day 1, 8 h after administration.
Setting [11] is: Cohort 2: 300 mg once, Day 1 before administration (baseline).

`c1ccc(C2(c3ccccc3)CC2C2=NCCN2)cc1` (stereo not drawn) [S(−)-cibenzoline]: the “effects of QcTF and QRS prolongation (electrocardiography)” value was “QcTF and QRS prolongation were confirmed” in data set [1]; “QcTF and QRS prolongation were confirmed” in data set [2] (cohorts 1 and 2: 200 mg and 300 mg, single oral administration). For the same molecule, the “side effects for multiple administration (safety and tolerability)” value in data set [1] (compared to cohort 6 (racemic mixture 150 mg 3 times a day, 14 days)) is listed as “did not cause significant side effects”. The “side effects (safety and tolerability)” value in data set [2] (200 mg and 300 mg once a day, single oral administration, compared to cohort 3 (racemic mixture 150 mg 3 times a day)) is on record as “did not cause significant side effects”. For the same molecule, the QRS worked out at 102 ms in data set [2] (setting [4]); 107 ms in data set [2] (setting [5]); 99 ms in data set [2] (setting [6]); 92 ms in data set [2] (setting [7]); 107 ms in data set [2] (setting [8]); 116 ms in data set [2] (setting [9]). In addition, the QRS is 107 ms in data set [2] (setting [10]) and 101 ms in data set [2] (setting [11]). Also, the QTcF is recorded as 412 ms in data set [2] (setting [4]); 426 ms in data set [2] (setting [5]); 408 ms in data set [2] (setting [6]); 406 ms in data set [2] (setting [7]); 419 ms in data set [2] (setting [8]); 429 ms in data set [2] (setting [9]). Moreover, the QTcF in data set [2] (setting [10]) came out at 415 ms; in data set [2] (setting [11]), 411 ms.
`c1ccc(C2(c3ccccc3)CC2C2=NCCN2)cc1` (racemic) [cibenzoline, 2-(2,2-diphenylcyclopropyl)-4,5-dihydro-1H-imidazole]: the “side effects compared with disopyramide” value in data set [3] is reported as “fewer side effects than disopyramide”.
